# PubChem BioAssay AID330 (DTP/NCI, 2004)
# “And” between values parts separate entries of the source, which are not always exact repeats. Equal entries are not always repeated. Inconclusive results and toxic doses are left out. Square brackets hold non-standard residues; d marks the D form. Peptide text beside a SMILES is read from it. * marks the point of attachment. ξ: configuration not given here. Cbz = O=C(OCc1ccccc1)*; ξT = CC(O)C(N)C(=O)O; OBn = c1ccc(CO*)cc1
# System: P388 leukemia ip, CD2F1 mice, survival T/C
# Assay: NCI In Vivo Anticancer Drug Screen. Data for tumor model P388 Leukemia (intraperitoneal) in CD2F1 (CDF1) mice
# Conditions: endpoint: median survival time, higher = longer survival
# Summary of the method: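 Mice carrying the transplanted tumor received test compound or vehicle. Survival was recorded in each group, and the value is the treated-group measurement divided by that of the vehicle-treated control group.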
# [1] = dose: 50.0 mg/kg/injection, schedule: Q01DX009 (ip), vehicle: Klucel (hydroxypropylcellulose) (HPC)
# [2] = dose: 100.0 mg/kg/injection, schedule: Q01DX009 (ip), vehicle: Klucel (hydroxypropylcellulose) (HPC)
# [3] = dose: 200.0 mg/kg/injection, schedule: Q01DX009 (ip), vehicle: Klucel (hydroxypropylcellulose) (HPC)
# [4] = dose: 50.0 mg/kg/injection, schedule: Q01DX009 (ip), vehicle: saline with Tween-80
# [5] = dose: 100.0 mg/kg/injection, schedule: Q01DX009 (ip), vehicle: saline with Tween-80
# [6] = dose: 200.0 mg/kg/injection, schedule: Q01DX009 (ip), vehicle: saline with Tween-80
# [7] = dose: 60.0 mg/kg/injection, schedule: Q01DX005 (ip), vehicle: saline with Tween-80
# [8] = dose: 120.0 mg/kg/injection, schedule: Q01DX005 (ip), vehicle: saline with Tween-80
# [9] = dose: 240.0 mg/kg/injection, schedule: Q01DX005 (ip), vehicle: saline with Tween-80
# [10] = dose: 50.0 mg/kg/injection, schedule: Q01DX005 (ip), vehicle: Klucel (hydroxypropylcellulose) (HPC)
# [11] = dose: 100.0 mg/kg/injection, schedule: Q01DX005 (ip), vehicle: Klucel (hydroxypropylcellulose) (HPC)
# [12] = dose: 200.0 mg/kg/injection, schedule: Q01DX005 (ip), vehicle: Klucel (hydroxypropylcellulose) (HPC)
# [13] = dose: 50.0 mg/kg/injection, schedule: Q01DX005 (ip), vehicle: saline with Tween-80
# [14] = dose: 100.0 mg/kg/injection, schedule: Q01DX005 (ip), vehicle: saline with Tween-80
# [15] = dose: 200.0 mg/kg/injection, schedule: Q01DX005 (ip), vehicle: saline with Tween-80
# [16] = dose: 25.0 mg/kg/injection, schedule: Q01DX009 (ip), vehicle: saline with Tween-80
structure (smiles),measurement,setting,value
O=C1CSC(=Nc2ccccc2)N1c1ncccn1,T/C,[1],103 % of control
same,T/C,[2],102 % of control
same,T/C,[3],102 % of control
CC(=O)OCC1OC(n2ncc(=O)[nH]c2=O)C(OC(C)=O)C1OC(C)=O (stereo unspecified),T/C,[4],122 % of control
same,T/C,"dose: 100.0 mg/kg/injection, schedule: Q01DX009 (ip), vehicle: saline sonified",118 % of control
same,T/C,[5],122 % of control
same,T/C,"dose: 200.0 mg/kg/injection, schedule: Q01DX009 (ip), vehicle: saline sonified",122 % of control
same,T/C,"dose: 400.0 mg/kg/injection, schedule: Q01DX009 (ip), vehicle: saline sonified",118 % of control
same,T/C,"dose: 800.0 mg/kg/injection, schedule: Q01DX009 (ip), vehicle: saline with Tween-80",100 % of control
COc1ccccc1C1NC(c2ccccc2OC)C2CCCC1NC2=O (stereo unspecified),T/C,"dose: 100.0 mg/kg/injection, schedule: Q04DX003 (ip), vehicle: suspension in saline",98 % of control
same,T/C,"dose: 200.0 mg/kg/injection, schedule: Q04DX003 (ip), vehicle: suspension in saline",98 % of control
same,T/C,"dose: 400.0 mg/kg/injection, schedule: Q04DX003 (ip), vehicle: suspension in saline",98 % of control
O=C1c2ccccc2CC2CCCCC12 (stereo unspecified),T/C,[4],103 % of control
same,T/C,[5],102 % of control
same,T/C,[6],108 % of control
OCC1CSCN1 (stereo unspecified),T/C,"dose: 50.0 mg/kg/injection, schedule: Q04DX002 (ip), vehicle: saline",93 % of control
same,T/C,"dose: 100.0 mg/kg/injection, schedule: Q04DX002 (ip), vehicle: saline",99 % of control and 101 % of control
same,T/C,"dose: 200.0 mg/kg/injection, schedule: Q04DX002 (ip), vehicle: saline",101 % of control and 120 % of control
same,T/C,"dose: 400.0 mg/kg/injection, schedule: Q04DX002 (ip), vehicle: saline",101 % of control and 104 % of control
C=C1CC[C@@H]2C(C)(C)CCC[C@@]2(C)[C@@H]1Cc1cc(O)ccc1O,T/C,"dose: 10.0 mg/kg/injection, schedule: Q01DX009 (ip), vehicle: Klucel (hydroxypropylcellulose) (HPC)",104 % of control
same,T/C,"dose: 20.0 mg/kg/injection, schedule: Q01DX009 (ip), vehicle: Klucel (hydroxypropylcellulose) (HPC)",110 % of control
same,T/C,"dose: 40.0 mg/kg/injection, schedule: Q01DX009 (ip), vehicle: Klucel (hydroxypropylcellulose) (HPC)",116 % of control
CC(C)(C)c1ccc(-c2cc3nc(C(F)(F)F)cc(=O)n3[nH]2)cc1,T/C,[7],89 % of control
same,T/C,[8],89 % of control
same,T/C,[9],100 % of control
CN1C(=O)c2ccc3c4ccc5c6c(ccc(c7ccc(c2c37)C1=O)c64)C(=O)OC5=O,T/C,[10],101 % of control
same,T/C,[11],101 % of control
same,T/C,[12],103 % of control
C=C(CC(=O)O)C(N)C(=O)O (stereo unspecified),T/C,"dose: 60.0 mg/kg/injection, schedule: Q01DX005 (ip), vehicle: Klucel (hydroxypropylcellulose) (HPC)",104 % of control
same,T/C,"dose: 120.0 mg/kg/injection, schedule: Q01DX005 (ip), vehicle: Klucel (hydroxypropylcellulose) (HPC)",100 % of control
same,T/C,"dose: 240.0 mg/kg/injection, schedule: Q01DX005 (ip), vehicle: Klucel (hydroxypropylcellulose) (HPC)",106 % of control
CCOP(O)(=S)OCC.[Ti],T/C,[1],96 % of control
same,T/C,[2],101 % of control
same,T/C,[3],92 % of control
CCOC(=O)/C(C#N)=N/Nc1ccc2cn[nH]c2c1,T/C,[10],99 % of control
same,T/C,[11],94 % of control
same,T/C,[12],97 % of control
CC(O)C(NC(=O)OCc1ccccc1)C(=O)NCC(=O)NCC(=O)OCc1ccccc1 (stereo not drawn) (Cbz-[ξT]-Gly-Gly-OBn),T/C,[13],106 % of control
same,T/C,[14],100 % of control
same,T/C,[15],106 % of control
CC1[C@@H]2CC=C3[C@H]4CCC5Cc6nc7c(nc6C[C@@]5(C)C4CC(=O)[C@]32CO[C@]12OC(C)(C)CC2O)CC1CC[C@@H]2C3=C[C@H]4O[C@@]5(O[C@@](C)(CO)C[C@@H]5O)C(C)[C@@]4(O)[C@]3(C)[C@@H](O)CC2[C@]1(C)C7 (stereo partly specified),T/C,"dose: 0.08 mg/kg/injection, schedule: Q01DX009 (ip), vehicle: saline + alcohol",86 % of control
same,T/C,"dose: 10.0 micrograms/kg/injection, schedule: Q01DX005 (ip), vehicle: saline + alcohol",115 % of control and 117 % of control
same,T/C,"dose: 20.0 micrograms/kg/injection, schedule: Q01DX005 (ip), vehicle: saline + alcohol",114 % of control and 115 % of control
same,T/C,"dose: 80.0 micrograms/kg/injection, schedule: Q01DX005 (ip), vehicle: saline + alcohol",123 % of control
COc1ccc(C2CC(C)(N3CCCC3)Oc3cc4c(cc32)OCO4)cc1 (stereo unspecified),T/C,[7],101 % of control
same,T/C,[8],92 % of control
same,T/C,[9],98 % of control
O=C(NS(=O)(=O)c1ccc(Cl)cc1)c1ccccc1,T/C,"dose: 12.5 mg/kg/injection, schedule: Q01DX009 (ip), vehicle: saline with Tween-80",102 % of control and 91 % of control
same,T/C,[16],106 % of control
same,T/C,[4],100 % of control and 94 % of control
O=c1[nH]c(=O)n2ncnc2[nH]1,T/C,[16],91 % of control
same,T/C,[13],95 % of control
same,T/C,[4],95 % of control
same,T/C,[14],95 % of control
same,T/C,[5],99 % of control
same,T/C,[15],105 % of control
same,T/C,[6],91 % of control
CC(=O)Nc1ccc(C(c2c(O)cc(C)[nH]c2=O)c2c(O)cc(C)[nH]c2=O)cc1,T/C,[4],104 % of control
same,T/C,[5],112 % of control
same,T/C,[6],112 % of control
COc1cc(C)c(C2NC(=O)c3ccccc3N2)cc1C (stereo unspecified),T/C,[10],104 % of control and 111 % of control
same,T/C,[11],103 % of control and 112 % of control
same,T/C,"dose: 172.0 mg/kg/injection, schedule: Q01DX005 (ip), vehicle: Klucel (hydroxypropylcellulose) (HPC)",109 % of control
same,T/C,[12],112 % of control and 121 % of control
same,T/C,"dose: 288.0 mg/kg/injection, schedule: Q01DX005 (ip), vehicle: Klucel (hydroxypropylcellulose) (HPC)",118 % of control
same,T/C,"dose: 800.0 mg/kg/injection, schedule: Q01DX005 (ip), vehicle: Klucel (hydroxypropylcellulose) (HPC)",117 % of control
same,T/C,"dose: 1333.0 mg/kg/injection, schedule: Q01DX005 (ip), vehicle: Klucel (hydroxypropylcellulose) (HPC)",160 % of control
CCC(O)(C(=O)O)c1ccccc1 (stereo unspecified),T/C,"dose: 25.0 mg/kg/injection, schedule: Q04DX003 (ip), vehicle: saline",105 % of control
same,T/C,"dose: 50.0 mg/kg/injection, schedule: Q04DX003 (ip), vehicle: saline",97 % of control
same,T/C,"dose: 100.0 mg/kg/injection, schedule: Q04DX003 (ip), vehicle: saline",94 % of control
same,T/C,"dose: 200.0 mg/kg/injection, schedule: Q04DX003 (ip), vehicle: saline",100 % of control
Oc1nc(-c2ccccc2)sc1-c1ccccc1,T/C,[4],89 % of control
same,T/C,[5],92 % of control
same,T/C,[6],104 % of control
COC1/C=C\C=C(/C)C(=O)NC2=CC(=O)C(NCCCl)=C(CC(C)CC(OC)C(O)C(C)/C=C(/C)C1OC(N)=O)C2=O (stereo unspecified),T/C,"dose: 1.5 mg/kg/injection, schedule: Q01DX009 (ip), vehicle: DMSO",107 % of control
same,T/C,"dose: 3.0 mg/kg/injection, schedule: Q01DX009 (ip), vehicle: DMSO",108 % of control
same,T/C,"dose: 3.12 mg/kg/injection, schedule: Q04DX002 (ip), vehicle: saline with Tween-80",115 % of control
same,T/C,"dose: 5.0 mg/kg/injection, schedule: Q04DX002 (ip), vehicle: saline with Tween-80",111 % of control
same,T/C,"dose: 6.0 mg/kg/injection, schedule: Q01DX009 (ip), vehicle: DMSO",111 % of control
same,T/C,"dose: 6.25 mg/kg/injection, schedule: Q04DX002 (ip), vehicle: saline with Tween-80",123 % of control
same,T/C,"dose: 12.0 mg/kg/injection, schedule: Q01DX009 (ip), vehicle: DMSO",117 % of control
same,T/C,"dose: 12.5 mg/kg/injection, schedule: Q04DX002 (ip), vehicle: saline with Tween-80",119 % of control
same,T/C,"dose: 20.0 mg/kg/injection, schedule: Q04DX002 (ip), vehicle: saline with Tween-80",122 % of control
CSC(SC)(SC)SC,T/C,[4],94 % of control
same,T/C,[5],109 % of control
CC(C(=O)O)C1(C(=O)O)CCCCCC1 (stereo unspecified),T/C,"dose: 100.0 mg/kg/injection, schedule: Q01DX001 (ip), vehicle: saline with Tween-80",100 % of control
same,T/C,"dose: 200.0 mg/kg/injection, schedule: Q01DX001 (ip), vehicle: saline with Tween-80",93 % of control
same,T/C,"dose: 400.0 mg/kg/injection, schedule: Q01DX001 (ip), vehicle: saline with Tween-80",109 % of control
Cc1cc(O)c(C(c2ccccc2)c2c(O)cc(C)[nH]c2=O)c(=O)[nH]1,T/C,[16],90 % of control
same,T/C,[4],91 % of control
same,T/C,[5],86 % of control
